The OligoGym collection
Values joined by “and” are separate entries in the source; they are usually repeats but may differ in a detail not shown here. Equal values may be shown once. After the bases stand the sugars from the 5' end (letter, count) and the backbone: PS all phosphorothioate, else s phosphorothioate and o phosphodiester by linkage. Methylation of C is not given here. e = 2'-O-(2-methoxyethyl) (MOE); d = 2'-deoxy (DNA)

Target: DGAT2
Details: ASO

Sequence	target mRNA inhibition (HepG2, 0.12 µM)	target mRNA inhibition (HepG2, 20 µM)	target mRNA inhibition (HepG2, 2.5 µM)	target mRNA inhibition (HepG2, 10 µM)
AGCCTGGACAAGTCCTGCCC (sugars e5 d10 e5, PS)	79%	79% and 92% and 91%	–	–
AGGAAAACTTAGGCATGCTT (sugars e5 d10 e5, PS)	–	–	58%	84%
AGGAAGGACAGGACCCACTG (sugars e5 d10 e5, PS)	38%	–	–	–
AGGACACCTGGAGCTGCGGC (sugars e5 d10 e5, PS)	–	–	42%	84%
AGGACAGGGCAGACACACCT (sugars e5 d10 e5, PS)	44%	–	–	–
AGGACCCACTGGAGCACTGA (sugars e2 d13 e5, PS)	75%	–	–	–
AGGACCCCGGAGTAGGCGGC (sugars e5 d10 e5, PS)	52% and 76%	–	60%	92%
AGGAGCCCTCCTCGAAGATC (sugars e5 d10 e5, PS)	31%	–	–	–
AGGCACAGAAAAGTGAGGCT (sugars e5 d10 e5, PS)	–	–	75%	67%
AGGCATATACAAAAGTCTGA (sugars e5 d10 e5, PS)	38%	–	–	–
AGGCATGGAGCTCAGAGACT (sugars e3 d14 e3, PS)	66%	–	–	–
AGGCCAAGGACAGAGGTTCA (sugars e5 d10 e5, PS)	–	–	60% and 51%	81% and 87%
AGGGAGGCCTTGCACTTACC (sugars e5 d10 e5, PS)	13%	–	–	–
AGGTTGTGTGTCTTCACCAG (sugars e3 d14 e3, PS)	61%	–	–	–
AGTTTCGGACCCACTGTGAC (sugars e5 d10 e5, PS)	63%	–	–	–
ATAATTTCTTTTAAATAACC (sugars e5 d10 e5, PS)	0%	–	–	–
ATCCAGTGCCCCATCTCCCA (sugars e5 d10 e5, PS)	16%	–	–	–
ATCCGGACTGAATGTCACCT (sugars e5 d10 e5, PS)	–	–	80% and 72%	84% and 91%

Sequence	target mRNA inhibition (HepG2, 0.12 µM)	target mRNA inhibition (HepG2, 20 µM)	target mRNA inhibition (HepG2, 2.5 µM)	target mRNA inhibition (HepG2, 10 µM)
ATGAGGGTCTTCATGGCTGA (sugars e5 d10 e5, PS)	7%	–	–	–
ATGGAGCTCAGAGACTCAGC (sugars e2 d13 e5, PS)	73%	–	–	–
ATGTATTTCTGGAACTTCTT (sugars e5 d10 e5, PS)	45%	–	–	–
ATTAGCAGTAGCTCAGGAGA (sugars e5 d10 e5, PS)	48%	–	–	–
ATTGCCACTCCCATTCTTTG (sugars e2 d13 e5, PS)	53%	–	–	–
ATTGCCACTCCCATTCTTTG (sugars e3 d14 e3, PS)	40%	–	–	–
ATTTCTTATCTTCAATCCTC (sugars e5 d10 e5, PS)	–	–	57%	95%
CAAAAACATGACAGCCAGGG (sugars e5 d10 e5, PS)	–	–	85% and 75%	96% and 90%
CAATGCCAATGCCTAGGTCA (sugars e5 d10 e5, PS)	–	–	70%	90%
CAATGGGAATGGTATCGCAC (sugars e5 d10 e5, PS)	–	–	68% and 62%	93% and 85%
CACCATTTTCACAAGGAGAA (sugars e5 d10 e5, PS)	–	–	86%	82%
CACTGGAGCACTGAGATGAC (sugars e5 d10 e5, PS)	27% and 48%	–	–	–
CAGAATGAGACAGGCAGCCC (sugars e5 d10 e5, PS)	–	–	37%	82%
CAGAGTTATCCTCAATTCAC (sugars e5 d10 e5, PS)	34%	–	–	–
CAGATCTTCATTACATGATT (sugars e5 d10 e5, PS)	–	–	71%	89%
CAGCAGATGATGTCCTGCCT (sugars e5 d10 e5, PS)	–	–	66%	88%
CAGCAGGTTGTGTGTCTTCA (sugars e5 d10 e5, PS)	66% and 75%	–	16% and 39%	63% and 79%
CAGCAGTCTGCCTGATTCCC (sugars e5 d10 e5, PS)	–	–	66%	94%
